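96-well plates; 48 h exposure; 5 concentrations. Endpoints by linear interpolation between flanking doses. Not reached: highest tested concentration assigned. The concentration for 50% growth inhibition is given as GI50.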 Activity calls are given as the source filed them. Cut-off read from the data, not from the text of the source: active = GI50 up to about 1.1 µM and inactive = higher.
Legend:
Assay in all cases: DTP human tumour cell line panel, 48 h
[1] = tested on: NCI-H460
[2] = tested on: HCT-116
[3] = tested on: TK-10
[4] = tested on: SF-268
[5] = tested on: NCI-H522
[6] = tested on: HL-60
[7] = tested on: SW-620
[8] = tested on: XF498
[9] = tested on: UO-31
[10] = tested on: MOLT-4
[11] = tested on: HOP-92
[12] = tested on: CCRF-CEM
[13] = tested on: NCI-H226
[14] = tested on: A549
[15] = tested on: LOX IMVI
[16] = tested on: EKVX
[17] = tested on: M19-MEL
[18] = tested on: K562
[19] = tested on: SNB-78
[20] = tested on: DMS-273
[21] = tested on: A498
[22] = tested on: SK-MEL-2
[23] = tested on: SF-539
[24] = tested on: NCI-H23
[25] = tested on: DLD-1
[26] = tested on: IGROV-1
[27] = tested on: HOP-62
[28] = tested on: ACHN
[29] = tested on: RPMI-8226
[30] = tested on: Malme-3M
[31] = tested on: 786-0
[32] = tested on: LXFL 529
[33] = tested on: SK-MEL-28
[34] = tested on: SK-MEL-5
[35] = tested on: KM-20L2
[36] = tested on: UACC-62
[37] = tested on: OVCAR-8
[38] = tested on: SF-295
[39] = tested on: DMS-114
[40] = tested on: SNB-75
[41] = tested on: RXF 393
[42] = tested on: OVCAR-4
[43] = tested on: HCC 2998
[44] = tested on: CAKI-1
[45] = tested on: OVCAR-5
[46] = tested on: M14
[47] = tested on: KM12
[48] = tested on: SR
[49] = tested on: SN12C
[50] = tested on: OVCAR-3
[51] = tested on: HCT-15
[52] = tested on: HT-29
[53] = tested on: SNB-19
[54] = tested on: U-251
[55] = tested on: UACC-257
[56] = tested on: HOP-18
[57] = tested on: SK-OV-3
[58] = tested on: COLO 205

In the case of `COc1cc2ccc1-c1cc(ccc1O)CC1c3cc4c(cc3CCN1C)Oc1c(OC)cc3c(c1O4)C(C2)N(C)CC3` (configuration not stated), the GI50 [1] is reported as 1750 nM (inactive), the GI50 [2] is reported as 1460 nM (inactive) and the GI50 [3] is reported as 12200 nM (inactive). For the same compound, the GI50 [4] was 1810 nM (inactive), the GI50 [5] was 1750 nM (inactive) and the GI50 [6] was 2160 nM (inactive). For the same compound, the GI50 [7] was 1840 nM (inactive), the GI50 [8] was 1920 nM (inactive) and the GI50 [9] was 1800 nM (inactive). For the same compound, the GI50 [10] was 1830 nM (inactive), the GI50 [11] was 13400 nM (inactive) and the GI50 [12] was 2190 nM (inactive). The GI50 [13] was 2220 nM (inactive), the GI50 [14] was 1840 nM (inactive) and the GI50 [15] was 1990 nM (inactive). The GI50 [16] was 2100 nM (inactive), the GI50 [17] was 1880 nM (inactive) and the GI50 [18] was 1440 nM (inactive). The GI50 [19] was 2100 nM (inactive), the GI50 [20] was 1780 nM (inactive) and the GI50 [21] was 2190 nM (inactive). The GI50 [22] was 1790 nM (inactive), the GI50 [23] was 1790 nM (inactive) and the GI50 [24] was 1990 nM (inactive). The GI50 [25] was 2280 nM (inactive), the GI50 [26] was 2170 nM (inactive) and the GI50 [27] was 1930 nM (inactive). For the same compound, the GI50 [28] was 2000 nM (inactive), the GI50 [29] was 1910 nM (inactive) and the GI50 [30] was 1890 nM (inactive). The GI50 [31] was 1690 nM (inactive), the GI50 [32] was 1840 nM (inactive) and the GI50 [33] was 1520 nM (inactive). The GI50 [34] was 2080 nM (inactive), the GI50 [35] was 1460 nM (inactive) and the GI50 [36] was 2000 nM (inactive). The GI50 [37] was 1870 nM (inactive), the GI50 [38] was 1810 nM (inactive) and the GI50 [39] was 2000 nM (inactive). For the same compound, the GI50 [40] was 1800 nM (inactive), the GI50 [41] was 1670 nM (inactive) and the GI50 [42] was 1960 nM (inactive). For the same compound, the GI50 [43] was 1630 nM (inactive), the GI50 [44] was 2520 nM (inactive) and the GI50 [45] was 3400 nM (inactive). For the same compound, the GI50 [46] was 1820 nM (inactive), the GI50 [47] was 1730 nM (inactive) and the GI50 [48] was 1850 nM (inactive). The GI50 [49] was 2080 nM (inactive), the GI50 [50] was 1950 nM (inactive) and the GI50 [51] was 1680 nM. The GI50 [52] was 1730 nM (inactive), the GI50 [53] was 1980 nM (inactive) and the GI50 [54] was 1690 nM (inactive). The GI50 [55] was 1720 nM (inactive).

In the case of `O=c1[nH]cnc2[nH]nnc12`, the GI50 [1] is reported as 8650 nM (inactive), the GI50 [2] is reported as 2100 nM (inactive) and the GI50 [3] is reported as 7520 nM (inactive). For the same compound, the GI50 [56] was 2330 nM (inactive), the GI50 [4] was 1060 nM (active) and the GI50 [5] was 9510 nM (inactive). The GI50 [6] was 323 nM (active), the GI50 [7] was 1490 nM (inactive) and the GI50 [8] was 7500 nM (inactive). The GI50 [9] was 2730 nM (inactive), the GI50 [10] was 726 nM (active) and the GI50 [11] was 2190 nM (inactive). For the same compound, the GI50 [12] was 400 nM (active), the GI50 [13] was 5600 nM (inactive) and the GI50 [14] was 84900 nM (inactive). The GI50 [15] was 668 nM (active), the GI50 [16] was > 100000 nM (inactive) and the GI50 [17] was 4020 nM (inactive). The GI50 [18] was 593 nM (active), the GI50 [19] was 6300 nM (inactive) and the GI50 [20] was 6000 nM (inactive). For the same compound, the GI50 [21] was 57000 nM (inactive), the GI50 [22] was 386 nM (active) and the GI50 [23] was 3850 nM (inactive). The GI50 [24] was 35600 nM (inactive), the GI50 [26] was 16000 nM (inactive) and the GI50 [27] was 1990 nM (inactive). For the same compound, the GI50 [28] was 12000 nM (inactive), the GI50 [29] was 685 nM (active) and the GI50 [30] was 1410 nM (inactive). For the same compound, the GI50 [31] was 3270 nM (inactive), the GI50 [32] was 84700 nM (inactive) and the GI50 [33] was 4460 nM (inactive). For the same compound, the GI50 [34] was 41500 nM (inactive), the GI50 [35] was 3870 nM (inactive) and the GI50 [36] was 968 nM (active). The GI50 [37] was 723 nM (active), the GI50 [38] was 8650 nM (inactive) and the GI50 [39] was 8020 nM (inactive). The GI50 [40] was 4110 nM (inactive), the GI50 [41] was 2620 nM (inactive) and the GI50 [42] was 4930 nM (inactive). The GI50 [43] was 18100 nM (inactive), the GI50 [44] was 1250 nM (inactive) and the GI50 [45] was 29800 nM (inactive). The GI50 [46] was 1110 nM (active), the GI50 [57] was 4310 nM (inactive) and the GI50 [47] was 32700 nM (inactive). The GI50 [48] was 920 nM (active), the GI50 [49] was 1930 nM (inactive) and the GI50 [50] was 14000 nM (inactive). The GI50 [51] was 11600 nM, the GI50 [58] was 47100 nM (inactive) and the GI50 [52] was 7960 nM (inactive). For the same compound, the GI50 [53] was 88500 nM (inactive), the GI50 [54] was 34600 nM (inactive) and the GI50 [55] was 4390 nM (inactive).
